≈ marks a conversion by molar mass, not a printed value.
Tests used:
Aspergillus terreus = experiment: In Vitro Antifungal Activity, agar plates (Table III); type: cell-based; details: 72 h, three days at 25° C., pH 5.7, read-out: Minimum Inhibitory Concentration
Experimental: (§1) Compounds A, B, and C were tested further to determine antifungal activity. The compounds were added to melted and cooled (50° C.) agar to obtain concentrations of 100, 50, 25, 12.5, 6.25 and 0.0 mcg per ml of agar. After the agar solidified, sterile cotton swabs were dipped in stock suspensions of the organisms (10^6 organisms per ml of physiological saline) and then streaked across the agar. After three days' incubation at 25° C., concentrations which prevented growth were recorded as the minimal inhibitory concentration. The composition of the medium used in this study was as follows:
(§2) Calcium carbonate -- 0.5 g
(§3) V-8 juice filtrate -- 200.0 ml
(§4) Distilled water q.s. -- 1000 ml
(§5) The pH was adjusted to 5.7.

Colletotrichum phomoides = experiment: as above; type: cell-based; details: 72 h, three days at 25° C., pH 5.7, read-out: Minimum Inhibitory Concentration
Experimental: as §1, §2, §3, §4, §5

[1] = system: Saccharomyces pastorianus; experiment: as above; type: cell-based; details: 72 h, three days at 25° C., pH 5.7, read-out: Minimum Inhibitory Concentration
Experimental: as §1, §2, §3, §4, §5

Rhodotorula glutinis = experiment: as above; type: cell-based; details: 72 h, three days at 25° C., pH 5.7, read-out: Minimum Inhibitory Concentration
Experimental: as §1, §2, §3, §4, §5

Microsporum gypseum = experiment: as above; type: cell-based; details: Nannizzia gypsea, 72 h, three days at 25° C., pH 5.7, read-out: Minimum Inhibitory Concentration
Experimental: as §1, §2, §3, §4, §5

Botrytis cinerea = experiment: as above; type: cell-based; details: 72 h, three days at 25° C., pH 5.7, read-out: Minimum Inhibitory Concentration
Experimental: as §1, §2, §3, §4, §5

[2] = system: Fusarium oxysporum cubense; experiment: as above; type: cell-based; details: 72 h, three days at 25° C., pH 5.7, read-out: Minimum Inhibitory Concentration
Experimental: as §1, §2, §3, §4, §5

Aspergillus fumigatus = experiment: as above; type: cell-based; details: 72 h, three days at 25° C., pH 5.7, read-out: Minimum Inhibitory Concentration
Experimental: as §1, §2, §3, §4, §5

Penicillium notatum = experiment: as above; type: cell-based; details: Penicillium chrysogenum, 72 h, three days at 25° C., pH 5.7, read-out: Minimum Inhibitory Concentration
Experimental: as §1, §2, §3, §4, §5

Chaetomium globosum = experiment: as above; type: cell-based; details: 72 h, three days at 25° C., pH 5.7, read-out: Minimum Inhibitory Concentration
Experimental: as §1, §2, §3, §4, §5

human skin [3] = details: prior art; cited from earlier work
human skin [4] = details: in vivo
Source text: Two-hundred subjects were employed in each investigation. The repeated insult technique was used in the patch test. A different group of subjects were utilized for each evaluation.
The technique used for the patch test called for a series of 9 induction patches of each test material to be placed on each of the subjects. The series was followed two weeks later by a single "challenge" patch of each test material to detect skin sensitization.
The series of nine induction patches was applied on Monday, Wednesday and Thursday and allowed to contact the skin for 24 hours, after which time they were removed and the skin sites graded for irritation. Thursday's patches were placed immediately after removal and grading of Wednesday's applications. After the ninth induction patches had been placed, a non-patching period of 2 weeks elapsed before the challenge patches were applied to detect sensitization reactions. For this 24-hour patch, a new skin site was used. This site was invariably chosen adjacent to an induction site; i.e., one where repeated applications had been made during the series of nine induction patches. The challenge applications were graded at 24 and 72 hours after application.
The skin applications for each material were made using oval-shaped adhesive patches (1" × 11/4") with circular gauze centers. The gauze centers were coated with approximately 0.03 ml. of the respective test material just prior to application.
The scoring criteria used for skin irritation reactions and in evaluating the sensitization evidenced on the challenge application follows:
Four separate formulations of each compound were tested along with two formulations of parabens.
A reading of 5 or more on the 8-point scale was deemed to be indicative of the development of skin sensitization to the test compound.

Streptococcus faecalis [5] = experiment: in vitro agar plate determination (Table VII); type: cell-based; details: Enterococcus faecalis; agar plates at 10, 25 and 50 mcg. per ml., 24 hours; read-out: Minimum Inhibitory Concentration
Experimental: (§6) The antimicrobial activities of […] (Compound G) were determined concurrently with 5-bromo-2-methyl-5-nitro-1,3-dioxane (Compound C) and 5-bromo-5-nitro-1,3-dioxane (Compound B) against the same six organisms shown in Table II. […] The tests were in vitro determinations utilizing agar plates containing the active compound at 10, 25 and 50 mcg. per ml. of agar. The organisms, at concentrations of 10^6 organisms per milliliter, were streaked on the solidified agar. The plates were incubated for 24 hours and the presence or absence of growth noted. The minimum inhibitory concentration (MIC) was determined as the lowest active compound concentration in the agar where no growth occurred.

Pseudomonas aeruginosa [6] = experiment: in vitro agar plate determination (Table VII); type: cell-based; details: agar plates at 10, 25 and 50 mcg. per ml., 24 hours, read-out: Minimum Inhibitory Concentration
Experimental: as §6

Escherichia coli [7] = experiment: in vitro agar plate determination (Table VII); type: cell-based; details: agar plates at 10, 25 and 50 mcg. per ml., 24 hours, read-out: Minimum Inhibitory Concentration
Experimental: as §6

Staphylococcus aureus [8] = experiment: in vitro agar plate determination (Table VII); type: cell-based; details: agar plates at 10, 25 and 50 mcg. per ml., 24 hours, read-out: Minimum Inhibitory Concentration
Experimental: as §6

Aspergillus niger [9] = experiment: in vitro agar plate determination (Table VII); type: cell-based; details: agar plates at 10, 25 and 50 mcg. per ml., 24 hours, read-out: Minimum Inhibitory Concentration
Experimental: as §6

Candida albicans [10] = experiment: in vitro agar plate determination (Table VII); type: cell-based; details: agar plates at 10, 25 and 50 mcg. per ml., 24 hours, read-out: Minimum Inhibitory Concentration
Experimental: as §6

Propionibacterium acnes = experiment: conventional tube dilution test, anaerobic; type: cell-based; details: Cutibacterium acnes, medium pH 6.9, read-out: minimum inhibitory concentration
Experimental: For example, 5-bromo-2-methyl-5-nitro-1,3-dioxane (Compound C) was tested against Propionibacterium acnes (formerly called Corynebacterium acnes) in a conventional tube dilution test. A simultaneous test was run utilizing 2-bromo-2-nitropropane,1,3-diol (Compound A) and 5-bromo-5-nitro-1,3-dioxane (Compound B) as the antimicrobials.
The test against Propionibacterium acnes were run anaerobically in the following medium:
as §4
The pH of the medium was 6.9

Streptococcus faecalis [11] = experiment: conventional tube dilution test (Table I); type: cell-based; details: Enterococcus faecalis, 48 h, antibiotic Number 3 medium, two days at 37° C., read-out: Minimum Inhibitory Concentration
Experimental: (§7) The in vitro antimicrobial activities of Compounds A, B and C, 5-bromo-2-ethyl-5-nitro-1,3-dioxane (Compound D), 5-bromo-5-nitro-2-n-propyl-1,3-dioxane (Compound E), and 5-bromo-2-isopropyl-5-nitro-1,3-dioxane (Compound F) were determined concurrently against Pseudomonas aeruginosa, Staphylococcus aureus, Escherichia coli, and Streptococcus faecalis in a conventional tube dilution test. The medium used was antibiotic Number 3 [CFR 436.102(3)] and the concentration of organisms was 10^4 organisms per ml of medium, with each tube being inoculated with 0.1 ml of inoculum. The figures shown in Table I are the lowest concentrations in mcg of active compound/ml of medium where no growth occurred in the medium after two days' incubation at 37° C.

Pseudomonas aeruginosa [12] = experiment: conventional tube dilution test (Table I); type: cell-based; details: 48 h, antibiotic Number 3 medium, two days at 37° C., read-out: Minimum Inhibitory Concentration
Experimental: as §7

Escherichia coli [13] = experiment: conventional tube dilution test (Table I); type: cell-based; details: 48 h, antibiotic Number 3 medium, two days at 37° C., read-out: Minimum Inhibitory Concentration
Experimental: as §7

Staphylococcus aureus [14] = experiment: conventional tube dilution test (Table I); type: cell-based; details: 48 h, antibiotic Number 3 medium, two days at 37° C., read-out: Minimum Inhibitory Concentration
Experimental: as §7

human skin [15] = experiment: Human Repeated Insult Patch Test, induction series (irritation); details: in vivo
Source text: The following protocol was followed in testing each compound.
Two-hundred subjects were employed in each investigation.

[16] = prior art; cited from earlier work
Streptococcus faecalis [17] = experiment: agar plate system (Table II); type: cell-based; details: Enterococcus faecalis, antibiotic medium 1, 72 hours at 30° C., read-out: Minimum Inhibitory Concentration
Experimental: (§8) The antimicrobial activities of Compounds A, B, C, D, E and F were also determined in an agar plate system. The compounds were added to melted and cooled (50° C.) agar in twofold concentration increments from 50 mcg per ml of agar to 1.56 mcg per ml of agar. Antibiotic medium 1 [CFR 436.102(1)] was used for testing of Pseudomonas aeruginosa, Staphylococcus aureus, Escherichia coli, and Streptococcus faecalis, but antibiotic medium 22 [CFR 436.102(22)] was used for testing of Candida albicans and Aspergillus niger. Organism suspensions containing 10^6 organisms per ml were used as stock suspensions. Sterile cotton swabs were dipped in the suspensions and then streaked across the solidified agar. The figures shown in Table II were the lowest concentrations at which no growth occurred after 72 hours at 30° C. These values were interpreted as the minimum inhibitory concentration (MIC).

Pseudomonas aeruginosa [18] = experiment: agar plate system (Table II); type: cell-based; details: antibiotic medium 1, 72 hours at 30° C., read-out: Minimum Inhibitory Concentration
Experimental: as §8

Escherichia coli [19] = experiment: agar plate system (Table II); type: cell-based; details: antibiotic medium 1, 72 hours at 30° C., read-out: Minimum Inhibitory Concentration
Experimental: as §8

Staphylococcus aureus [20] = experiment: agar plate system (Table II); type: cell-based; details: antibiotic medium 1, 72 hours at 30° C., read-out: Minimum Inhibitory Concentration
Experimental: as §8

Aspergillus niger [21] = experiment: agar plate system (Table II); type: cell-based; details: antibiotic medium 22, 72 hours at 30° C., read-out: Minimum Inhibitory Concentration
Experimental: as §8

Candida albicans [22] = experiment: agar plate system (Table II); type: cell-based; details: antibiotic medium 22, 72 hours at 30° C., read-out: Minimum Inhibitory Concentration
Experimental: as §8

[23] = solubility in water and mineral oil; type: physicochemical; details: compared with other species of the invention
microorganisms = experiment: antimicrobial tests on isomeric mixtures; type: cell-based; details: one high in the cis- form, the other high in the trans- form
Experimental: The novel compounds of this embodiment of the present invention, exemplified in Examples 1, 2, 3, and 4 can exist as cis- and trans-isomers. The procedure outlined in Example 1 produces a ratio of isomers of about 9:1. It is the intent of this invention to include both geometric isomers as chemical entities as well as the isomeric mixture. […] Consequently, the utility tests described hereinafter were conducted employing the isomeric mixture (about 9:1) prepared as detailed in Example 1.

[24] = chemical stability towards pH / alkali; type: physicochemical; details: pH 5-9

SMILES	MIC (Aspergillus terreus) [µg/mL]	MIC (Colletotrichum phomoides) [µg/mL]	MIC [1] [µg/mL]	MIC (Rhodotorula glutinis) [µg/mL]	MIC (Microsporum gypseum) [µg/mL]	MIC (Botrytis cinerea) [µg/mL]	MIC [2] [µg/mL]	MIC (Aspergillus fumigatus) [µg/mL]	MIC (Penicillium notatum) [µg/mL]	MIC (Chaetomium globosum) [µg/mL]	subjects evaluated as being sensitive on the challenge test (human skin [4])	MIC (Streptococcus faecalis [5]) [µg/mL]	MIC (Pseudomonas aeruginosa [6]) [µg/mL]	MIC (Escherichia coli [7]) [µg/mL]	MIC (Staphylococcus aureus [8]) [µg/mL]	MIC (Aspergillus niger [9]) [µg/mL]	MIC (Candida albicans [10]) [µg/mL]	MIC (Propionibacterium acnes) [µg/mL]	MIC (Streptococcus faecalis [11]) [µg/mL]	MIC (Pseudomonas aeruginosa [12]) [µg/mL]	further results
O=[N+]([O-])C1(Br)COCOC1 [Compound B, 5-bromo-5-nitro-1,3-dioxane, reference compound]	25 (≈ 118 µM)	100 (≈ 472 µM)	100 (≈ 472 µM)	50 (≈ 236 µM)	50 (≈ 236 µM)	50 (≈ 236 µM)	< 6.25	< 6.25	25 (≈ 118 µM)	< 6.25	11 subjects	< 10	25 (≈ 118 µM)	< 10	25 (≈ 118 µM)	50 (≈ 236 µM)	25 (≈ 118 µM)	6.25 (≈ 29.5 µM)	25 (≈ 118 µM)	25 (≈ 118 µM)	irritation and sensitization in human subjects (human skin [3]): induces irritation and sensitization in a significant number of human subjects; sensitizing effect (human skin [4]): marked sensitizing effect; MIC (Escherichia coli [13]): 25 µg/mL (≈ 118 µM); MIC (Staphylococcus aureus [14]): 25 µg/mL (≈ 118 µM); irritation readings compared with the 2-methyl derivative (human skin [15]): more severe; chemical stability towards alkali [16]: does possess chemical stability towards alkali; MIC (Streptococcus faecalis [17]): 12.5 µg/mL (≈ 59 µM); MIC (Pseudomonas aeruginosa [18]): 12.5 µg/mL (≈ 59 µM); MIC (Escherichia coli [19]): 6.25 µg/mL (≈ 29.5 µM); MIC (Staphylococcus aureus [20]): 12.5 µg/mL (≈ 59 µM); MIC (Aspergillus niger [21]): 25 µg/mL (≈ 118 µM); MIC (Candida albicans [22]): 12.5 µg/mL (≈ 59 µM)
CC1OCC(Br)([N+](=O)[O-])CO1 (stereo not drawn) [Compound C, 5-bromo-2-methyl-5-nitro-1,3-dioxane]	12.5 (≈ 55.3 µM)	100 (≈ 442 µM)	> 100	100 (≈ 442 µM)	100 (≈ 442 µM)	12.5 (≈ 55.3 µM)	12.5 (≈ 55.3 µM)	< 6.25	25 (≈ 111 µM)	< 6.25	none	12.5 (≈ 55.3 µM)	25 (≈ 111 µM)	12.5 (≈ 55.3 µM)	12.5 (≈ 55.3 µM)	12.5 (≈ 55.3 µM)	6.25 (≈ 27.7 µM)	6.25 (≈ 27.7 µM)	25 (≈ 111 µM)	25 (≈ 111 µM)	solubility in water and oil, qualitative [23]: superior solubility in water and oil; antimicrobial activity of isomeric mixtures (microorganisms): equal activity; MIC (Escherichia coli [13]): 25 µg/mL (≈ 111 µM); MIC (Staphylococcus aureus [14]): 25 µg/mL (≈ 111 µM); chemical stability at pH [24]: chemically stable at pH's from 5.0 to 9.0; MIC (Streptococcus faecalis [17]): 12.5 µg/mL (≈ 55.3 µM); MIC (Pseudomonas aeruginosa [18]): 25 µg/mL (≈ 111 µM); MIC (Escherichia coli [19]): 12.5 µg/mL (≈ 55.3 µM); MIC (Staphylococcus aureus [20]): 12.5 µg/mL (≈ 55.3 µM); MIC (Aspergillus niger [21]): 12.5 µg/mL (≈ 55.3 µM); MIC (Candida albicans [22]): 6.25 µg/mL (≈ 27.7 µM)
